# In patent US6416753B1, “Method for modulating apoptosis” (The General Hospital Corporation, priority 1996, dated 2002):
# Legend:
# [1] = biological target: IL-1 type-1 receptor on HeLa cells (UniProt P14778); assay: cell-based or functional assay
# [2] = tested on: HeLa cells; assay: Hypoxia-induced apoptosis of HeLa cells, viability by trypan blue exclusion; assay type: cell-based
# Description: (§1) Hypoxia-induced apoptosis was studied as follows. HeLa and HeLa/CrmA cells (Miura, M., et al., Proc. Natl. Acad. Sci. USA. 92:8318-8322, 1995) were seeded in 35 mm dishes at a density of 6×10^4/dish in DMEM/10% FCS and grown overnight. The medium was then changed and factors were added (IL-1Ra, R & D, Minneapolis, Minn.), IL-1 antibody (Calbiochem, San Diego, Calif.), or IL-1 type-1 receptor antibody (R & D, Minneapolis, Minn.). Dishes were placed in an anaerobic chamber with a BBL GasPack Plus (Becton-Dickenson, USA), which reduced the oxygen concentration to less than 100 p.p.m. within 90 minutes. After 16 hours, cells were removed from the chamber, immediately trypsinized and scored for viability by trypan blue exclusion. Inhibition of ^125I IL-1β binding by IL-1Ra which was added for 2 hrs at 37° C. After addition of BSA (1 mg/ml) to the medium, cells were incubated at 4° C. for 15 minutes, and then ^125IL-1β (100 ng/ml) was added at 4° C. for 1 hr. For detection of ^125IL-1β binding, cells were treated with 50 mM glycine-HCl, pH 2.6 for 1 min, and quantitated by γ-counting.
# Hypoxia was produced as described in Example 1. IL-1β (100 ng/ml) was added as the cells were placed into the hypoxia chamber (90 min. are required to reach oxygen concentrations of 100 p.p.m.). […] Cells were then treated as above with glycine and radioactivity scored.
# [3] = biological target: T1, IL-1 receptor (Homo sapiens, UniProt P14778); assay: Inhibition of 125I IL-1β receptor binding in HeLa cells; details: IL-1Ra added for 2 hrs at 37° C.
# T1 construct: endogenous in cells; host or cells: HeLa cells
# T1 sequence (P14778 18-569): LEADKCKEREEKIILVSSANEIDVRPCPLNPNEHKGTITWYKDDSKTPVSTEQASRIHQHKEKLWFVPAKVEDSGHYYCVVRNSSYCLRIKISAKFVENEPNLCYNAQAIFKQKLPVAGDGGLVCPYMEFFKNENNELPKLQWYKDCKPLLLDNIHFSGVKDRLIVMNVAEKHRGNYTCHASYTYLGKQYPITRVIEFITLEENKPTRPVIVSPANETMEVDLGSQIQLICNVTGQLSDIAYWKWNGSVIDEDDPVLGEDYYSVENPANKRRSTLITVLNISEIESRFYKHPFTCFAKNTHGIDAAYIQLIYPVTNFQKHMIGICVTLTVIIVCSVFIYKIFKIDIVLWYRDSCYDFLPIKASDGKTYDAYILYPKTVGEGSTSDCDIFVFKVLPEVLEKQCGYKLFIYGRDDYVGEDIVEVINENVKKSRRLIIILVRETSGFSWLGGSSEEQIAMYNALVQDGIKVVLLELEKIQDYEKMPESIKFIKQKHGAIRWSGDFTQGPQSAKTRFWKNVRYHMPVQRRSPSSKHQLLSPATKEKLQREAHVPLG
# Description: as §1
# [4] = tested on: DRG neurons; assay: Trophic factor deprivation of primary DRG neurons, healthy neurons counted; assay type: cell-based, mouse; details: for Inhibition of trophic factor withdrawal-induced apoptosis: 100 ng/ml
# Description: Neuronal trophic factor deprivation was assayed as follows. Post-natal day 1 mouse DRG neurons were isolated, dissociated with trypsin for one hour at 37° C., and plated in a 8 camber poly-lysine/laminin (Sigma, St. Louis, Mo.) coated slide. Wells were seeded at approximately 1000 neurons/well (8 wells/mouse). Neurons were cultured in Ham's nutrient F-12 supplemented with 20% FCS (Biowhittaker, Walkesvill, Md.), NGF (200 ng/ml) (Sigma, St. Louis, Mo.), BDNF (100 ng/ml) (Preprotech, Rocky Hill, N.J.), glutamine (2 mM), and penicillin/streptomycin. The medium was replaced daily with either trophic factor containing medium (TF(+))=20% FCS and NGF (200 ng/ml), or trophic factor deficient medium, TF(−)=serum and NGF-free medium in the presence of saturating concentration of mouse NGF monoclonal antibody (100 ng/ml) (Boehringer Mannheim, Indianapolis, Ind.), and IL-IRA (100 ng/ml unless otherwise indicated in the text). Healthy neurons were counted under a phase contrast microscope 24 and 48 hours following the media change.
# [5] = tested on: L929 cells; assay: TNF-α induced cell death of L929 cells, trypan blue exclusion; assay type: cell-based; details: IL-1Ra 40 ng/ml
# Description: After 12 hours, the cells were washed 3 times with serum free DMEM, and hydroxyurea (HU) (2.5 mM) (Sigma, St. […] Natl. Acad. Sci. U.S.A. 91: 3754 (1994)). After five hours, IL-1Ra (40 ng/ml) was added to the appropriate wells, and one hour later either TNF-α or mature IL1β were added. Twenty-four hours later, IL-1Ra was again added to the appropriate wells, and cell death was evaluated by trypan blue exclusion 60 hours after the initial addition of HU. Each condition was done three times in duplicate and 200 cells counted per well. For the photographs cells were grown on 2 well slides, and for nuclear morphology determination cells were fixed in 4% paraformaldehyde and incubated with Hoechst dye #33258 (10 μg/ml) (Sigma, St. Louis, Mo.).
# [6] = tested on: HeLa cells; assay: TNF-α induced cell death of hydroxyurea (G1/S) arrested HeLa cells; assay type: cell-based; details: HU treated, G1/S phase arrested HeLa cells; IL-1Ra 40 ng/ml
# Description: (§2) HeLa, HeLa/CrmA, and L929 cells were seeded (2×10^4) in a 24 well plate and grown overnight in DMEM with 10% FCS. After 12 hours, the cells were washed 3 times with serum free DMEM, and hydroxyurea (HU) (2.5 mM) (Sigma, St. Louis, Mo.) was added to the HeLa and HeLa/CrmA cells Meikrantz, W., et al., Proc. Natl. Acad. Sci. U.S.A. 91: 3754 (1994)). After five hours, IL-1Ra (40 ng/ml) was added to the appropriate wells, and one hour later either TNF-α or mature IL1β were added. Twenty-four hours later, IL-1Ra was again added to the appropriate wells, and cell death was evaluated by trypan blue exclusion 60 hours after the initial addition of HU. Each condition was done three times in duplicate and 200 cells counted per well. For the photographs cells were grown on 2 well slides, and for nuclear morphology determination cells were fixed in 4% paraformaldehyde and incubated with Hoechst dye #33258 (10 μg/ml) (Sigma, St. Louis, Mo.).
# [7] = tested on: HeLa cells; assay: HeLa cell death induced by TNF-α and cycloheximide; assay type: cell-based; details: data not shown
# [8] = tested on: HeLa cells; assay: Mature IL-1β induced cell death of hydroxyurea (G1/S) arrested HeLa cells; assay type: cell-based; details: G1/S phase arrested HeLa cells
# Description: as §2
# [9] = tested on: COS cells; assay: Cell death of COS cells transfected with Ice-lacZ / Ich-1L-lacZ / proIL-1β, round blue cells scored; assay type: cell-based
# Description: COS cells were plated (2×10^4) in 6-well plates in DMEM with 10% FCS. After 12 hours the wells were washed with serum and antibiotic free medium, and transfected using lipofectamine with either Ice-lacZ, Ich-1L-lacZ, βactin-lacZ(1 μg) or with proIL-1β (0.5 μg) for 3 hours. The sequence for Ich-1L is shown in FIG. 7 and the sequences of human ICE and pro- IL-1β are found respectively in Thornsberry et al., Nature 356:768-774 (1992) and in J. Immunol. 137:3644-3648, 1986. The medium was then removed and DMEM with 10% FCS added. IL-1Ra (40 ng/ml) was then added to the appropriate wells, and after one hour IL-1β (100 ng/ml) was added. X-gal reaction was performed 36 hours following the transfection and percentage of round blue (dead) cells were scored (Miura, M., et al., Cell 75: 653 (1993))
# [10] = tested on: cerebral infarct; details: rat model; Relton & Rothwell 1992; cited from earlier work
# [11] = biological target: T1, IL-1 receptor; assay: IL-1 receptor binding assay (receptor down-regulation) in HeLa cells; assay type: cell-based; details: 100 ng/ml 125I IL-1β
# Description: Hypoxia was produced as described in Example 1. IL-1β (100 ng/ml) was added as the cells were placed into the hypoxia chamber (90 min. are required to reach oxygen concentrations of 100 p.p.m.). IL-1 receptor binding assay: HeLa cells (10^6) were seeded in 10 cm dishes and grown overnight. Media was then exchanged containing 1 mg/ml of BSA and 100 ng/ml of ^125I IL-1β at 4° C. for 1 hr. After washing twice with cold medium, the cells were incubated with fresh warm medium at 37° C. for 0, 30, 60 and 120 minutes. Cells were then treated as above with glycine and radioactivity scored.
# [12] = tested on: HeLa and L929; assay: Apoptosis of healthy proliferating cells exposed to mature IL-1β alone; assay type: cell-based; details: most healthy proliferating cells including HeLa and L929
substance,measurement,setting,value
mature IL-1β (from UniProt P01584 117-269) (ligand),cell death of G1/S phase arrested (HU treated) HeLa cells treated with exogenous mature IL-1β,[1],83.7%
same,survival of HeLa cells under hypoxia after preincubation with exogenous IL-1β (100 ng/ml),[1],58.7%
"IL-1Ra: a naturally occurring cytokine which binds to the IL-1 receptor, blocking IL-1 mediated signal transduction",Inhibition of hypoxia-induced cell death,"[2]; HeLa cells, 16 hours hypoxia",inhibited hypoxia-induced cell death
same,Blocking of 125I-IL-1β binding,[3],blocks
same,Inhibition of neuronal apoptosis,"[4]; 40 ng/ml, 24 hours",43.5%
same,Inhibition of trophic factor withdrawal-induced apoptosis,[4]; 24 hours,69.2%
same,Inhibition of trophic factor withdrawal-induced apoptosis,[4]; 48 hours,37.8%
same,Protection from TNF-α induced death,[5],up to 64.9%
same,Inhibition of TNF-α induced HeLa cell death,[6],56.0%
same,Protection from death induced by TNF-α and cycloheximide,[7],protected
same,Inhibition of mature IL-1β induced cell death,[8],inhibited
same,"Inhibition of death of COS cells expressing Ice-lacZ or Ich-1L-lacZ with proIL-1β, or with extracellular TNF-α or mature IL-1β",[9]; IL-1Ra 40 ng/ml,significantly inhibited
same,Reduction of cerebral infarct size following ischemia,[10],50%
"IL-1β: mature 17.5 kD interleukin-1β, cytokine produced by ICE cleavage of prointerleukin-1β",Survival of HeLa cells preincubated with exogenous IL-1β under hypoxia,"[2]; IL-1β 100 ng/ml added as cells were placed into the hypoxia chamber, control 10.1%",58.7%
same,Cell death induced by exogenous mature IL-1β,[8]; 100 ng/ml,83.7%
same,Induction of apoptosis in COS cells by the exogenous cytokine alone,[9]; COS cells without Ice/Ich-1L transfection,did not induce apoptosis
same,Induction of cell death in Ice-lacZ or Ich-1L-lacZ transfected COS cells,"[9]; extracellular cytokine, 36 hours after transfection",efficiently induced cell death
same,Down-regulation of the IL-1 receptor,[11],significantly down-regulated
same,Induction of apoptosis of healthy proliferating cells,[12],does not induce apoptosis
